Measured values taken from patent US20070191227A1, “Use of basic amino acids in copper-containing fungicidal formulations” (priority 2003, published 2007).

Test system: Septoria tritici
Assay: Growth assay with Septoria tritici as indicator fungus (photometric)
Format: cell-based
Conditions: Zymoseptoria tritici; active ingredient concentration 1 ppm, individual active ingredient
Experimental: Efficacy of Formulations According to the Invention Comprising Copper and a Further Fungicidal Active Ingredient Against Septoria tritici.
A growth assay was carried out with Septoria tritici as indicator fungus. The fungal growth was measured photometrically by the increase in absorption or light scattering as a function of mycelium density. The data were converted into percent growth inhibition, the absorption of the untreated controls being defined as 0% inhibition and that of a killed spore suspension as reference as 100% inhibition.
The expected efficacies of combinations of active ingredients were determined using Colby's formula (Colby, S. R. “Calculating synergistic and antagonistic responses of herbicide combinations”, Weeds, 15, pp. 20-22, 1967) and compared with the observed efficacies.
Colby's formula: E=x+y−x·y/100 • E expected efficacy, expressed in % of the untreated control, when using the mixture of the active ingredients A and B at the concentrations a and b • x efficacy, expressed in % of the untreated control, when using the active ingredient A at the concentration a
y efficacy, expressed in % of the untreated control, when using the active ingredient B at the concentration b

COC(=O)N(OC)c1ccccc1COc1ccn(-c2ccc(Cl)cc2)n1 [II, Pyraclostrobin]
inhibition at 1 ppm: 73%
